Data published in PMC11790956, “A microscale thermophoresis-based enzymatic RNA methyltransferase assay enables the discovery of DNMT2 inhibitors” (Communications Chemistry, 2025).

What was measured:
[1] = biological target: aptaSAH1&2 SAH split aptamer; assay: Split aptamer (aptaSAH1&2) MST ligand titration; type: binding, D. aromatica; details: MST, aptaSAH1&2 each 50 nM
Description: (§1) To establish our experimental setup, we mixed both aptamer fragment oligonucleotides at equimolar concentrations (final: 50 nM) and titrated series of SAH resp. SAM dilutions to this prototypical SAH biosensor. […] Furthermore, MST assays require only 10 µL of sample volume per capillary compared to 30 µL per well in a 96-well plate supporting high-throughput applications in material consumption.
To evaluate the effect of inhibitors on DNMT2 activity, we used two known inhibitors, SHO108 and SH112. These SAH derivatives were selected based on their documented efficacy for DNMT2[8],[26].
For MTase assay detection by MST, enzyme reaction mixtures with a total volume of 10 µL per single treatment condition were prepared and incubated for the desired reaction times. Inhibitors were added from corresponding DMSO stocks to a final DMSO concentration of max. 5%. Afterward, reactions were quenched at a given reaction time by the addition of 1 µL sodium dodecyl sulfate (SDS, solution, 3% in water) per 10 µL reaction mixture and mixed well by pipetting. Subsequently, 1 µL of a 10× aptamer-containing detection master mix (200 mM Tris, pH 8.5, 200 mM MgCl2, 3 M NaCl, 10 mM urea, 0.2% Brij, 500 nM aptaSAH1, 500 nM aptaSAH2) was added to the quenched MTase reaction and incubated for 1 h at room temperature. Reaction mixtures were loaded directly to MST capillaries without further purification or sample processing.
MST experiments were carried out in at least technical triplicates using a Monolith NT.115 instrument (NanoTemper Technologies) using Monolith standard capillaries and the blue excitation laser setup. The instrument was calibrated according to the manufacturer’s instructions. General settings were applied for all MST experiments as follows: manual temperature control: 25 °C, fluorescence measurement before MST: 4 s, MST (IR laser) on: 20 s, fluorescence after MST: 2 s, delay: 25 s. The laser power was adjusted to optimize the signal-to-noise ratio and the fluorescence signal. LED and MST power settings were chosen individually for each sample by adjusting the LED power to yield fluorescence signals of at least 300 units (blue laser) or 3000 units (red laser) and the MST power to achieve an appropriate thermophoretic response (standard setting: medium MST power). MST measurements were analyzed using the NT analysis software (version 1.5.41) and exported for statistical analysis and plotting in GraphPad Prism 7.01.

metH aptamer = system: metH aptamer; parameters: method as in PMID 20864509; details: cited from earlier work
[2] = biological target: aptaSAH1&2 SAH split aptamer; assay: Split aptamer (aptaSAH1&2) plate reader-based FRET ligand titration; type: binding, D. aromatica; details: for Kd: FRET, aptaSAH1&2 each 50 nM, λex = 485 nm, λem = 600 nm, read-out: apparent KD
Source text: In our study, we followed the aim of developing a fluorescent split aptamer SAH biosensor (Fig. 1A) from the natural non-split metH RNA aptamer. The concept of fluorescent split aptamers relies on a series of two or more independent fluorescently labeled aptamer oligonucleotides, able to assemble only in the presence of a specific target ligand. In a FRET-based approach, two fragments carry a FRET-pair of communicating fluorescent dyes, such that, upon excitation of the donor dye, the acceptor dye will only emit fluorescence if the dyes are in spatial proximity in the ligand-bound complex, thus indicating the presence of the analyte, i.e., SAH[23]. […] Accordingly, we evaluated two split aptamer fragments labeled with fluorescein (FAM) and tetramethylrhodamin (TAMRA) as a FRET-capable dye pair: aptaSAH1 and aptaSAH2 (Fig. 1B).
as §1
MTase reaction mixtures were prepared analogously to the MST-based detection approach but on a 30 µL scale (minimum volume for 96-well half-area plates). Reactions were quenched at a given time by 0.3% SDS and supplemented with 3 µL of the 10× aptamer-containing detection master mix. Reaction mixtures were transferred in technical triplicates to black Greiner 96-well half-area plate and incubated for 1 h at room temperature. Afterward, plates were measured using a Tecan Spark 10 M plate reader equipped with a monochromator setup (λex = 485 nm; λem = 600 nm). Statistical analysis and plotting were performed in GraphPad Prism 7.01.

AptaFluor SAH aptamer = assay: Commercial AptaFluor SAH assay kit (HTRF) ligand titration; type: binding; details: read-out: affinity KD
Description: To assess the suitability for sensing SAH in a steady-state enzymatic assay, we examined statistical Z-values at 50 nM SAH (which correspond to 5% SAM-to-SAH substrate conversion from 1 µM SAM substrate in a common RNA MTase reaction). By this, we determined an MST-based Z-value of 0.84 (FRET assay: Z = 0.57) highlighting the suitability of this framework for high-throughput screening (HTS) assay setups (Fig. 1E). For these reasons, we prefer the usage of the MST-based assay which the following chapter will focus on, but it is noteworthy that plate reader-based FRET assays were also found equally functional. Furthermore, we performed comparative assays with the commercial AptaFluor assay kit, which gave similar results to our assay in all respects (SI Fig. 2): Z-factor at 50 nM SAH = 0.84; SAH resp.
Radiometric DNMT2 assays were carried out as described previously. HTRF MTase assays with the commercial AptaFluor SAH assay kit (BellBrook Labs) were performed as described in the manufacturer’s manual in 96-well format.
SI Figure 1 . Displacement of FTAD by literature-known inhibitors in a microscale thermophoresis displacement a s s a y. Data is given as mean ± SD of triplicates. (A) MST traces of SHO108. […]
SI Figure 2. […] (B) D o se -response curves of the AptaFluor assay in the presence of the SAH or SAM ligand by plate reader-ba s e d HT R F ass ays (λex=33 2 nm; λem=620/665 nm). […]

METTL3/14 = biological target: T1, METTL3/14 (Homo sapiens, UniProt Q86U44); assay: METTL3/14 enzymatic split aptamer MST assay; type: biochemical; details: 10 nM MTase, 120 nM RNA substrate, variable SAM; read-out: Michaelis-Menten constant KM
T1 construct: purchased BPS Bioscience BPS-100105
T1 sequence (Q86U44 2-580 limits assumed): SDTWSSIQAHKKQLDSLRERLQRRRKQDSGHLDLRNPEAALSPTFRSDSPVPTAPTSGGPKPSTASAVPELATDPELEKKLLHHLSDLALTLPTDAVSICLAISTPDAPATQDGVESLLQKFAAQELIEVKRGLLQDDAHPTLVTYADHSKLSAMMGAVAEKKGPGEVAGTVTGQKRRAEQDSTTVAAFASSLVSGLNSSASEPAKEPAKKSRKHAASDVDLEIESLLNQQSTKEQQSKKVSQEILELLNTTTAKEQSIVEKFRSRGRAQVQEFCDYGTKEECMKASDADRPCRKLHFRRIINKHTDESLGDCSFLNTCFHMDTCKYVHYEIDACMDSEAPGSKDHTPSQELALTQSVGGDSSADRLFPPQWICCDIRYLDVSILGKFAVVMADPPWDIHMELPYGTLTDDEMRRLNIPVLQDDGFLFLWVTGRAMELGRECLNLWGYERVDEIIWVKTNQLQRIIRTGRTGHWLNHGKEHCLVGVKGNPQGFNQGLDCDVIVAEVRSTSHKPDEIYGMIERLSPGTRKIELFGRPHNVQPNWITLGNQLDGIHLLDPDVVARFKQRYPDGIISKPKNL
T1 sequence (Q9HCE5 2-456 partner limits assumed): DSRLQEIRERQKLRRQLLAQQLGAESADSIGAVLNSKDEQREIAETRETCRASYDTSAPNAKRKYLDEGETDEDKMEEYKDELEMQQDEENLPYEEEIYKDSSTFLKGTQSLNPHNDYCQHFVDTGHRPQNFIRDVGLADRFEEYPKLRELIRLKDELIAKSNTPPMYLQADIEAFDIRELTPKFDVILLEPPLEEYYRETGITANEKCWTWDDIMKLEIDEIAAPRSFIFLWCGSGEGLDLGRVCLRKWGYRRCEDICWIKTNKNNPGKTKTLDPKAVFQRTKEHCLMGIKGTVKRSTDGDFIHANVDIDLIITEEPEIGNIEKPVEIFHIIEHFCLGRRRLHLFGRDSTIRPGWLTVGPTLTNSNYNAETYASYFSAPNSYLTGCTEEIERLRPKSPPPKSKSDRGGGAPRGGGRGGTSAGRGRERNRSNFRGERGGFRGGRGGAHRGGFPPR
Description: Specifically, we studied the m^6A MTase METTL3/14 and the m^7G MTase S. aureus TrmD.
For MTase assay detection by MST, enzyme reaction mixtures with a total volume of 10 µL per single treatment condition were prepared and incubated for the desired reaction times. Inhibitors were added from corresponding DMSO stocks to a final DMSO concentration of max. […] Afterward, reactions were quenched at a given reaction time by the addition of 1 µL sodium dodecyl sulfate (SDS, solution, 3% in water) per 10 µL reaction mixture and mixed well by pipetting. […]
MST experiments were carried out in at least technical triplicates using a Monolith NT.115 instrument (NanoTemper Technologies) using Monolith standard capillaries and the blue excitation laser setup. […] General settings were applied for all MST experiments as follows: manual temperature control: 25 °C, fluorescence measurement before MST: 4 s, MST (IR laser) on: 20 s, fluorescence after MST: 2 s, delay: 25 s. The laser power was adjusted to optimize the signal-to-noise ratio and the fluorescence signal. LED and MST power settings were chosen individually for each sample by adjusting the LED power to yield fluorescence signals of at least 300 units (blue laser) or 3000 units (red laser) and the MST power to achieve an appropriate thermophoretic response (standard setting: medium MST power). […]

S. aureus TrmD = biological target: T2, S. aureus TrmD (Staphylococcus aureus, UniProt Q2FZ43); assay: S. aureus TrmD enzymatic split aptamer MST assay; type: biochemical
T2 construct: made in house
T2 sequence (Q2FZ43 1-245): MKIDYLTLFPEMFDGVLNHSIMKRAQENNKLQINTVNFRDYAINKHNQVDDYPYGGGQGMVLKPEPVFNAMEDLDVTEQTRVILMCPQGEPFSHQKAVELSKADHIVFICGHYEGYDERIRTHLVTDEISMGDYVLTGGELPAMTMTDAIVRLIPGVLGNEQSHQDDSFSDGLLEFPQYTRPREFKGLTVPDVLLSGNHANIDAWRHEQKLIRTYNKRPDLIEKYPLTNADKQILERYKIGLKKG
Description: DNMT2 & S. aureus TrmD: 100 mM Tris-HCl, pH 8, 100 mM NH4OAc, 0.1 mM EDTA, 10 mM MgCl2, 10 mM DTT. For TrmD: 50 nM TrmD, 2 µM SAM, 1 µM tRNA^Leu.
For MTase assay detection by MST, enzyme reaction mixtures with a total volume of 10 µL per single treatment condition were prepared and incubated for the desired reaction times. Inhibitors were added from corresponding DMSO stocks to a final DMSO concentration of max. 5%. Afterward, reactions were quenched at a given reaction time by the addition of 1 µL sodium dodecyl sulfate (SDS, solution, 3% in water) per 10 µL reaction mixture and mixed well by pipetting. Subsequently, 1 µL of a 10× aptamer-containing detection master mix (200 mM Tris, pH 8.5, 200 mM MgCl2, 3 M NaCl, 10 mM urea, 0.2% Brij, 500 nM aptaSAH1, 500 nM aptaSAH2) was added to the quenched MTase reaction and incubated for 1 h at room temperature. […]
MST experiments were carried out in at least technical triplicates using a Monolith NT.115 instrument (NanoTemper Technologies) using Monolith standard capillaries and the blue excitation laser setup. […] General settings were applied for all MST experiments as follows: manual temperature control: 25 °C, fluorescence measurement before MST: 4 s, MST (IR laser) on: 20 s, fluorescence after MST: 2 s, delay: 25 s. The laser power was adjusted to optimize the signal-to-noise ratio and the fluorescence signal. […]

TrmD = details: read-out: reported IC50; cited from earlier work

| Structure (SMILES) | Kd [1] [nM] | selectivity over other nucleosides (including SAM) (metH aptamer) | Kd (metH aptamer; isothermal titration calorimetry, read-out: apparent dissociation constant KD) [nM] | Kd [2] [nM] | SAH over SAM selectivity ([2]; from FRET apparent KD values) [fold] | Kd (AptaFluor SAH aptamer) [nM] | Km (METTL3/14) [µM] | IC50 (S. aureus TrmD) [nM] | IC50 (TrmD) [nM] |
| --- | --- | --- | --- | --- | --- | --- | --- | --- | --- |
| Nc1ncnc2c1ncn2[C@@H]1O[C@H](CSCC[C@H](N)C(=O)O)[C@@H](O)[C@H]1O [SAH, S-adenosylhomocysteine] | 24 | at least 100 fold | ~20 | 18 | 300 | 26 | – | – | – |
| C[S+](CC[C@H](N)C(=O)[O-])C[C@H]1O[C@@H](n2cnc3c(N)ncnc32)[C@H](O)[C@@H]1O (stereo partly drawn) [SAM, S-adenosylmethionine] | 2500 | – | – | 5300 | – | 5700 | 0.106 | – | – |
| O=c1nc[nH]c2scc(-c3ccccc3)c12 [phenylthieno-pyrimidinone, 5-phenylthieno[2,3-d]pyrimidin-4(1H)-one] | – | – | – | – | – | – | – | 8450 | 11000 |
